Results as given in patent US8394929B2, “Nogo receptor-mediated blockade of axonal growth” (Yale University, priority 2000, dated 2013).
Like-named read-outs stand apart in the source and are kept apart here.

B1: NgR-ecto: secreted fragment of amino acid residues 1-348 of the murine NgR, in HEK293T conditioned medium (protein)
chain: CPGACVCYNEPKVTTSCPQQGLQAVPTGIPASSQRIFLHGNRISHVPAASFQSCRNLTILWLHSNALARIDAAAFTGLTLLEQLDLSDNAQLHVVDPTTFHGLGHLHTLHLDRCGLRELGPGLFRGLAALQYLYLQDNNLQALPDNTFRDLGNLTHLFLHGNRIPSVPEHAFRGLHSLDRLLLHQNHVARVHPHAFRDLGRLMTLYLFANNLSMLPAEVLMPLRSLQYLRLNDNPWVCDCRARPLWAWLQKFRGSSSEVPCNLPQRLADRDLKRLAASDLEGCAVASGPFRPIQTSQLTDEELLSLPKCCQPDAADKASVLE
modifications: left off: small tags and cut ends
notes: secreted fragment of amino acid residues 1-348 of the murine NgR, in HEK293T conditioned medium

System: GST-Nogo-66 inhibition of neurite outgrowth
Test: Blockade of Nogo-induced inhibition of neurite outgrowth in chick DRG neurons
Format: cell-based
Description: For all experiments involving cell culture, the following methods were employed. The culture of embryonic chick E10 and E12 dorsal root ganglion explants and dissociated neurons utilized methods described for E7 dorsal root ganglion cultures (Takahashi et al., (1998) Nature Neurosci. 1, 487-493; Takahashi et al., (1999) Cell 99, 59-69; Goshima et al., (1995) Nature 376, 509-514; Jin & Strittmatter, (1997) J. Neurosci. […]). NGF-differentiated PC12 cells were cultured as described (Strittmatter et al., (1994) J. Neurosci. 14, 2327-2338). Embryonic spinal cord explants (rat E10 or chick E5) were cultured for 7-14 days in the presence of PDGF-AA to induce differentiation of some cells into mature oligodendrocytes (Vartanian et al., (1999) Proc. Natl. Acad. Sci. USA 96, 731-735). The procedure for growth cone collapse assays is identical to that for analysis of Sema3A-induced growth cone collapse (Takahashi et al., (1998) Nature Neurosci. 1, 487-493; Takahashi et al., (1999) Cell 99, 59-69; Goshima et al., (1995) Nature 376, 509-514; Jin & Strittmatter, (1997) J. Neurosci. 17, 6256-6263). The method for analysis of total neurite outgrowth has also been described (Goshima et al., (1995) Nature 376, 509-514; Jin & Strittmatter, (1997) J. Neurosci. 17, 6256-6263; Strittmatter et al., (1994) J. Neurosci. 14, 2327-2338). In outgrowth assays, proteins and peptides were added one hour after plating to minimize any effect on the total number of adherent cells. To test the effect of substrate-bound GST or GST-Nogo, the protein solutions were dried on poly-L-lysine coated glass, washed and then coated with laminin. For E12 cultures, the neuronal identity of cells was verified by staining with anti-neurofilament antibodies (2H3, Develomental Studies Hybridoma Bank) and neurites were traced by observation of rhodamine-phalloidin staining of F-actin in processes.
Peptide 140 was tested for its ability to neutralize neurite outgrowth inhibition caused by the addition of GST fused to residues #1055-1120 of hNogoA (designated Nogo-66 in FIG. 16e). Plastic chamber slides were coated with 100 μg ml^−1 poly-L-lysine, washed, and dried. 3 μl drops of PBS containing GST-hNogoA(residues #1055-1120) were spotted and dried. Slides were then rinsed and coated with 10 μg ml fs24^−1 laminin before addition of dissociated E12 chick DRGs. Peptide 140 was added at the time of cell plating. Cultures were grown for 5-7 h after which neurite outgrowth was assessed.
Although the role of the GPI anchor may be to regulate NgR cellular compartmentalization, another possible role for the GPI linkage is to provide a NgR cleavage site. Cleaving NgR could serve to affect hNogo-A (1055-1120) signaling by rendering a neuron insensitive to hNogo-A (1055-1120) and by releasing soluble NgR that could then act on adjacent cells to modulate hNogo-A (1055-1120) signaling. To determine if soluble mNgR modulates hNogo-A (1055-1120)-dependent inhibition, a soluble mNgR was generated by inserting a truncated cDNA encoding mNgR residues 1-348 in frame with a myc-His carboxy tag into pcDNA3.1. The resulting plasmid expressing mNgREcto was transfected into HEK293T cells, and conditioned media containing mNgREcto protein was collected. To test the effect of mNgREcto on Nogo signaling, E13 dissociated DRGs were plated in the presence of hNogo-A (1055-1120) or myelin. The inhibitors were presented in either soluble or substrate-bound forms. For neurite outgrowth assays on hNogo-A (1055-1120) or myelin substrates, Permanox chamber slides were coated with 100μ, fs24 g ml^−1 poly-L-Lysine, washed, and then 3-μl drops of phosphate-buffered saline (hereinafter “PBS”) containing 0, 10, 50, or 150 ng of GST-hNogo-A (1055-1120) or myelin were spotted and dried. GST-hNogo-A (1055-1120) and myelin were prepared as previously described (GrandPre et al., supra; Fournier et al., J. Cell Biol. 149:411-421, 2000). After three PBS washes, slides were coated with 10 μg ml^−1 laminin. […]

Molecule	blockade of Nogo-induced neurite outgrowth inhibition (in words)	blockade of Nogo-induced neurite outgrowth inhibition (in words) (listed as 2-41 fragment)	blockade of Nogo-induced neurite outgrowth inhibition (in words) (listed as NgREcto)
Peptide 140: synthetic peptide of amino acids #1055-1094 of the human NogoA protein, acetylated and amidated at the termini (Ac-RIYKGVIQAIQKSDEGHPFRAYLESEVAISEELVQKYSNS-NH2; UniProt Q9NQC3 1055-1094, looked up, fragment)	extensive outgrowth is observed	–	–
Pep2-41: 2-41 fragment of the 66 amino acid region of Nogo, acetylated and amidated at the termini (Ac-RIYKGVIQAIQKSDEGHPFRAYLESEVAISEELVQKYSNS-NH2)	can reverse the inhibition of neurite outgrowth	blocks	–
B1	blocks Nogo-66-induced inhibition of neurite outgrowth	–	partially reversed
